Results from publication PMC5365645, “Preclinical Pharmacokinetics and Pharmacodynamic Target of SCY-078, a First-in-Class Orally Active Antifungal Glucan Synthesis Inhibitor, in Murine Models of Disseminated Candidiasis” (Antimicrobial Agents and Chemotherapy, 2017).
In brackets after ≈: the same amount, converted by molar mass.

Columns and labels:
[1] = Solubility in simulated gastric and intestinal fluids; assay type: physicochemical; conditions: thermodynamic from solid, citrate salt form
Method: The solubility of SCY-078 was measured in simulated gastric fluid (SGF), fasted-state simulated intestinal fluid (FaSSIF), and fed-state intestinal fluid (FeSSIF) by Crystal Pharmatech (North Brunswick, NJ). In general, approximately 15 mg of solid was weighed into a 4-ml vial, 3.0 ml of medium was added, and the suspensions were stirred on a rolling incubator (25 rpm) at an ambient room temperature for 24 h. After incubation, 0.5 ml of suspension was centrifuged and filtered (0.45-μm pore size), and the concentration of SCY-078 was determined in the supernatant by high-pressure liquid chromatography (HPLC) with UV detection. The quantity of SCY-078 and the volume of medium was adjusted as required to determine the solubility in each medium.

in vivo [2] = assay: in vivo; parameters: species or system female CD-1 mice; conditions: female, CD-1, mouse
Method: (§1) The pharmacokinetics and bioavailability of SCY-078 were evaluated in uninfected mouse, rat, and dog after p.o. and i.v. administration. The in vivo phases of the PK studies were performed at either […] (Waltham, MA) or MPI Research (Mattawan, MI) after an Institutional Animal Care and Use Committee (IACUC) review. […] and MPI Research are Association for Assessment and Accreditation of Laboratory Animal Care International (AAALAC)-approved facilities. […] The peak concentration (Cmax), the time to maximum concentration (Tmax), the half-life, and the AUC were determined from composite mean plasma concentration-time data for rodents and individual plasma concentration-time data for dogs. All doses and plasma concentrations of SCY-078 are presented as free base.

[3] = tested on: C. parapsilosis isolate CP 20519.069; parameters: method as in PMID 25512406; conditions: stasis ref 6; cited from earlier work
C. albicans MY1055 = assay: In vitro MIC, broth microdilution CLSI M27-A3; assay type: cell-based; conditions: Candida albicans, 50% inhibition of fungal growth at 24 h
Method: A disseminated Candida infection was induced in C′5-deficient DBA/2N mice (Taconic Farms, Germantown, NY), weighing on average 20 g, by i.v. inoculation with C. albicans MY1055 (Merck Culture Collection). C. albicans MY1055 was cultured on Sabouraud dextrose agar (SDA; BBL, Cockeysville, MD) plates at 35°C for 24 h. Yeast cells were washed from the surface of agar plates into sterile saline, and the cell concentrations were quantitated by using a hemocytometer. Viable cell counts were confirmed by a serial 10-fold dilution of the cell suspension and plating on SDA plates. Plates were incubated for 24 to 48 h at 35°C, whereupon the numbers of CFU were determined. The in vitro activity of SCY-078 against the MY1055 isolate was evaluated using broth microdilution assays as described in CLSI M27-A3 ([39]).

in vivo [4] = assay: in vivo; parameters: species or system beagle dogs; conditions: beagle, dog; for half-life: t1/2
Method: as §1, with “base. Treatment naive male and female beagle dogs (n = 3/sex/group/time point) weighing 8 to 12 kg (males) or 6 to 10 kg (females) were given a single 5-mg/kg dose of SCY-078 as an i.v. injection over 5 min or an oral dose of 20 mg/kg as described above. Blood specimens were collected from the jugular vein at various time intervals to 72 h postdosing and processed as described above.” for “base.”

[5] = Plasma protein binding by equilibrium dialysis, across species; assay type: in vitro ADME, and human; conditions: DBA (mouse), Sprague-Dawley (rat), beagle (dog), human, pH 7.4, range across species, 0.1 to 10 μM
Method: In vitro reversible protein binding and blood/plasma partition ratio were determined for SCY-078 in mouse, rat, dog, and human plasma and whole blood (Table 3). […] The unbound fraction of SCY-078 in plasma determined by means of equilibrium dialysis was 0.2 to 0.5% (99.8 to 99.5% bound) and appeared to be independent of concentration over the range studied (0.1 to 10 μM). Within the limitations of the assay method, binding perhaps appeared modestly higher in rodent plasma than in dog or human plasma; however, the study was not powered to identify differences between species.
Protein binding of [^3H]SCY-078 in mouse, rat, dog, and human plasma was determined by means of equilibrium dialysis and liquid scintillation counting. Tritium-labeled SCY-078 in ethanol was added to unlabeled SCY-078 in methanol to prepare stock solutions at 10, 100, and 1,000 μM SCY-078 with constant activity.
Protein binding was determined against isotonic phosphate-buffered saline (pH 7.4) at 37°C for 24 h. […] After incubation, aliquots (100 μl) of plasma and phosphate buffer were counted for radioactivity (Beckman LS6500 liquid scintillation counter), and unbound fractions of SCY-078 were estimated based on the following calculation: unbound fraction = radioactivity (dpm/0.1 ml) in buffer/total radioactivity (dpm/0.1 ml) in plasma.

logD = assay type: physicochemical

CC(C)[C@@H](C)[C@@]1(C)CC[C@]2(C)[C@H]3CC[C@@H]4[C@@]5(COC[C@@]4(C)[C@@H](OC[C@](C)(N)C(C)(C)C)[C@H](n4ncnc4-c4ccncc4)C5)C3=CC[C@@]2(C)[C@@H]1C(=O)O [SCY-078, (1S,4aR,6aS,7R,8R,10aR,10bR,12aR,14R,15R)-15-[[(2R)-2-amino-2,3,3-trimethylbutyl]oxy]-8-[(1R)-1,2-dimethylpropyl]-14-[5-(4-pyridinyl)-1H-1,2,4-triazol-1-yl]-1,6,6a,7,8,9,10,10a,10b,11,12,12a-dodecahydro-1,6a,8,10a-tetramethyl-4H-1,4a-propano-2H-phenanthro[1,2-c]pyran-7-carboxylic acid]
solubility at 24 h ([1]; fasted-state simulated intestinal fluid (FaSSIF), FaSSIF): > 4.2 mg/mL | solubility at 24 h ([1]; fed-state simulated intestinal fluid (FeSSIF), FeSSIF): > 20 mg/mL | solubility at 24 h ([1]; simulated gastric fluid (SGF), simulated gastric fluid, SGF): > 20 mg/mL | bioavailability (in vivo [2]; 6.25 mg/kg): > 41% | bioavailability (in vivo [2]; 12 mg/kg): > 51% | Dose normalized AUC0–∞ to a 1-mg/kg dose (in vivo [2]; iv): 1.4 µg·h/mL | AUC(0-inf) (in vivo [2]; iv, 1 mg/kg): 1460 ng·h/mL | Vd ss (in vivo [2]; iv, 1 mg/kg): 5.3 L/kg | clearance (in vivo [2]; iv, 1 mg/kg): 11.3 mL/min/kg | AUC(0-t) (in vivo [2]; iv, 1 mg/kg, AUC0–24): 1390 ng·h/mL | Vd (in vivo [2]; iv, 1 mg/kg, Vd ss): 5.26 L/kg | half-life (in vivo [2]; iv, 1 mg/kg, t1/2): ~5.5 h | concentration at 4 h (in vivo [2]; po): 1490 ± 690 ng/mL | AUC(0-inf) (in vivo [2]; po, 6.25 mg/kg): 9560 ng·h/mL | Cmax (in vivo [2]; po, 6.25 mg/kg): 640 ng/mL | Tmax (in vivo [2]; po, 6.25 mg/kg): 4 h | concentration at 12 h (in vivo [2]; po, 6.25 mg/kg): 370 ± 60 ng/mL | AUC(0-t) (in vivo [2]; po, 6.25 mg/kg, AUC0–12): 3110 ng·h/mL | AUC(0-t) (in vivo [2]; po, 6.25 mg/kg, AUC0–24): 8360 ng·h/mL | Cmax (in vivo [2]; po, 6.25 mg/kg, Cmax): 390 ng/mL | half-life (in vivo [2]; po, 6.25 mg/kg, t1/2): 7.8 h | AUC0–12 (in vivo [2]; po, 12 mg/kg): 15100 ng·h/mL | AUC0–24 (in vivo [2]; po, 12 mg/kg): 22520 ng·h/mL | AUC(0-inf) (in vivo [2]; po, 12 mg/kg): 28300 ng·h/mL | Cmax (in vivo [2]; po, 12 mg/kg): 1610 ng/mL | Tmax (in vivo [2]; po, 12 mg/kg): 6 h | concentration at 12 h (in vivo [2]; po, 12 mg/kg): 850 ± 220 ng/mL | AUC(0-t) (in vivo [2]; po, 12 mg/kg, AUC0–12): 7580 ng·h/mL | AUC(0-t) (in vivo [2]; po, 12 mg/kg, AUC0–24): 22500 ng·h/mL | Cmax (in vivo [2]; po, 12 mg/kg, Cmax): 900 ng/mL | half-life (in vivo [2]; po, 12 mg/kg, Half-life in plasma): ~8.3 h | half-life (in vivo [2]; po, 12 mg/kg, t1/2): 8.8 h | Accumulation factor for AUC (in vivo [2]; po, 7 days): ~2 fold | Accumulation factor for Cmax (in vivo [2]; po, 7 days): ~2 fold | Total drug AUC0–24 target [3]: ~18.8 µM·h | MIC (C. albicans MY1055): 0.03 µg/mL (≈ 0.0411 µM) | AUC(0-inf) (in vivo [4]; both sexes, iv, 5 mg/kg): 11900 ± 2200 ng·h/mL | AUC(0-t) (in vivo [4]; both sexes, iv, 5 mg/kg): 10400 ± 1900 ng·h/mL | Vd (in vivo [4]; both sexes, iv, 5 mg/kg): 5.1 L/kg | clearance (in vivo [4]; both sexes, iv, 5 mg/kg): 7.5 mL/min/kg | half-life (in vivo [4]; both sexes, iv, 5 mg/kg): ~9.3 h | AUC(0-inf) (in vivo [4]; both sexes, po, 20 mg/kg): 16000 ng·h/mL | AUC(0-t) (in vivo [4]; both sexes, po, 20 mg/kg): 11500 ng·h/mL | Cmax (in vivo [4]; both sexes, po, 20 mg/kg): 810 ± 420 ng/mL | Tmax (in vivo [4]; both sexes, po, 20 mg/kg): 4 ± 2 h | bioavailability (in vivo [4]; both sexes, po, 20 mg/kg, Bioavailability): ~35% | half-life (in vivo [4]; both sexes, po, 20 mg/kg): ~15.2 h | Dose normalized AUC0–∞ to a 1-mg/kg dose (in vivo [4]; both, iv): ~2.4 µg·h/mL | t1/2 (in vivo [4]; both, iv, 5 mg/kg): 9.3 h | fraction unbound at 24 h [5]: 0.002 to 0.005 | logD (logD; at PI): 4.9 | logD (logD; pH 7.3): ~6.4
